Measurements: ChEMBL document CHEMBL1201861, “Genomics of Drug Sensitity in Cancer screening data, Wellcome Trust Sanger Institute”

Legend:
Experiment in all cases: cells
[1] = test system: SK-MEL-30; format: functional, cell-based; settings: Homo sapiens;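 also: growth inhibition of SK-MEL-30 cells, determined with a cell viability assay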
Description: SANGER: Inhibition of human SK-MEL-30 cell growth in a cell viability assay.

[2] = test system: MDA-MB-157; format: functional, cell-based, Homo sapiens; settings: Homo sapiens, MDA-MB-157
Description: SANGER: Inhibition of human MDA-MB-157 cell growth in a cell viability assay.

[3] = test system: HOS; format: functional, cell-based, Homo sapiens; settings: Homo sapiens, HOS;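 also: growth inhibition of human HOS cells, read out with a cell viability assay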
Description: SANGER: Inhibition of human HOS cell growth in a cell viability assay.

[4] = test system: MeWo; format: functional, cell-based, Homo sapiens; settings: Homo sapiens, MeWo;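 also: growth inhibition of MeWo cells, determined by a cell viability readout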
Description: SANGER: Inhibition of human Mewo cell growth in a cell viability assay.

[5] = test system: COR-L105; format: functional, cell-based, Homo sapiens; settings: Homo sapiens, COR-L105;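 also: cell growth inhibition determined with a viability assay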
Description: SANGER: Inhibition of human COR-L105 cell growth in a cell viability assay.

[6] = test system: A-427; format: functional, cell-based, Homo sapiens; settings: Homo sapiens, A-427;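 also: growth inhibition of human A-427 cells, read out by a cell viability assay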
Description: SANGER: Inhibition of human A427 cell growth in a cell viability assay.

[7] = test system: SW1088; format: functional, cell-based, Homo sapiens; settings: Homo sapiens, SW1088;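 also: growth inhibition of human SW1088 cells, read out by a cell viability assay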
Description: SANGER: Inhibition of human SW1088 cell growth in a cell viability assay.

[8] = test system: MZ1-PC; format: functional, cell-based, Homo sapiens; settings: Homo sapiens, MZ1-PC;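 also: cell viability assay measuring growth inhibition of human MZ1-PC cells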
Description: SANGER: Inhibition of human MZ1-PC cell growth in a cell viability assay.

[9] = test system: NCI-H1651; format: functional, cell-based, Homo sapiens; settings: Homo sapiens, NCI-H1651;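 also: Read-out is a cell viability assay, with IC50 expressing inhibition of NCI-H1651 cell growth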
Description: SANGER: Inhibition of human NCI-H1651 cell growth in a cell viability assay.

[10] = test system: NCI-H1299; format: functional, cell-based, Homo sapiens; settings: Homo sapiens, NCI-H1299;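 also: growth inhibition of human NCI-H1299 cells, read out by a cell viability assay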
Description: SANGER: Inhibition of human NCI-H1299 cell growth in a cell viability assay.

[11] = test system: NCI-H1793; format: functional, cell-based, Homo sapiens; settings: Homo sapiens, NCI-H1793;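 also: cell growth inhibition, read out by a cell viability assay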
Description: SANGER: Inhibition of human NCI-H1793 cell growth in a cell viability assay.

[12] = test system: SNU-449; format: functional, cell-based, Homo sapiens; settings: Homo sapiens, SNU-449
Description: SANGER: Inhibition of human SNU-449 cell growth in a cell viability assay.

[13] = test system: SK-MES-1; format: functional, cell-based, Homo sapiens; settings: Homo sapiens, SK-MES-1;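 also: growth inhibition of human SK-MES-1 cells, read out with a cell viability assay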
Description: SANGER: Inhibition of human SK-MES-1 cell growth in a cell viability assay.

[14] = test system: MKN-28; format: functional, cell-based, Homo sapiens; settings: Homo sapiens, MKN-28;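 also: cell viability assay read-out, IC50 reflects suppression of growth of human MKN-28 cells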
Description: SANGER: Inhibition of human MKN28 cell growth in a cell viability assay.

[15] = test system: CHP-212; format: functional, cell-based, Homo sapiens; settings: Homo sapiens, CHP-212
Description: SANGER: Inhibition of human CHP-212 cell growth in a cell viability assay.

[16] = test system: DJM-1; format: functional, cell-based, Homo sapiens; settings: Homo sapiens, DJM-1;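 also: growth inhibition of human DJM-1 cells, read out by a cell viability assay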
Description: SANGER: Inhibition of human DJM-1 cell growth in a cell viability assay.

[17] = test system: MEG-01; format: functional, cell-based; settings: Homo sapiens;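 also: growth inhibition of MEG-01 cells, read out by a cell viability assay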
Description: SANGER: Inhibition of human MEG-01 cell growth in a cell viability assay.

[18] = test system: NCI-H1355; format: functional, cell-based, Homo sapiens; settings: Homo sapiens, NCI-H1355;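 also: growth inhibition of human NCI-H1355 cells, read out by a cell viability assay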
Description: SANGER: Inhibition of human NCI-H1355 cell growth in a cell viability assay.

[19] = test system: HEL; format: functional, cell-based, Homo sapiens; settings: Homo sapiens, HEL;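 also: growth inhibition of HEL cells, read out with a cell viability assay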
Description: SANGER: Inhibition of human HEL cell growth in a cell viability assay.

[20] = test system: NCI-H2122; format: functional, cell-based, Homo sapiens; settings: Homo sapiens, NCI-H2122;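 also: growth inhibition of the cells, read out with a cell viability assay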
Description: SANGER: Inhibition of human NCI-H2122 cell growth in a cell viability assay.

[21] = test system: HCC1937; format: functional, cell-based, Homo sapiens; settings: Homo sapiens, HCC1937;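 also: growth inhibition measured with a cell viability read-out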
Description: SANGER: Inhibition of human HCC1937 cell growth in a cell viability assay.

[22] = test system: KYSE-180; format: functional, cell-based, Homo sapiens; settings: Homo sapiens, KYSE-180;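 also: growth inhibition of KYSE-180 cells, read out with a cell viability assay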
Description: SANGER: Inhibition of human KYSE-180 cell growth in a cell viability assay.

[23] = test system: MSTO-211H; format: functional, cell-based, Homo sapiens; settings: Homo sapiens, MSTO-211H
Description: SANGER: Inhibition of human MSTO-211H cell growth in a cell viability assay.

[24] = test system: A2058; format: functional, cell-based; settings: Homo sapiens;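 also: reduction of A2058 cell growth, read out with a viability assay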
Description: SANGER: Inhibition of human A2058 cell growth in a cell viability assay.

[25] = test system: MKN-7; format: functional, cell-based, Homo sapiens; settings: Homo sapiens, MKN-7;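 also: growth inhibition of MKN-7 cells, read out with a cell viability assay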
Description: SANGER: Inhibition of human MKN7 cell growth in a cell viability assay.

[26] = test system: YAPC; format: functional, cell-based, Homo sapiens; settings: Homo sapiens, YAPC;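 also: growth inhibition of YAPC cells, measured with a cell viability assay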
Description: SANGER: Inhibition of human YAPC cell growth in a cell viability assay.

[27] = test system: DMS-273; format: functional, cell-based, Homo sapiens; settings: Homo sapiens, DMS-273
Description: SANGER: Inhibition of human DMS-273 cell growth in a cell viability assay.

[28] = test system: Panc1005; format: functional, cell-based, Homo sapiens; settings: Homo sapiens, Panc1005;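 also: growth inhibition of human PANC-10-05 cells, measured by a cell viability assay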
Description: SANGER: Inhibition of human PANC-10-05 cell growth in a cell viability assay.

[29] = test system: HN; format: functional, cell-based, Homo sapiens; settings: Homo sapiens, HN
Description: SANGER: Inhibition of human HN cell growth in a cell viability assay.

[30] = test system: Hs-578T; format: functional, cell-based, Homo sapiens; settings: Homo sapiens, Hs-578T
Description: SANGER: Inhibition of human Hs-578-T cell growth in a cell viability assay.

[31] = test system: VM-CUB-1; format: functional, cell-based; settings: Homo sapiens;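 also: cell viability assay measuring growth inhibition of the human VM-CUB-1 cell line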
Description: SANGER: Inhibition of human VM-CUB-1 cell growth in a cell viability assay.

[32] = test system: LS-411N; format: functional, cell-based, Homo sapiens; settings: Homo sapiens, LS-411N
[33] = test system: SF-268; format: functional, cell-based, Homo sapiens; settings: Homo sapiens, SF-268;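 also: growth inhibition of SF-268 cells determined with a cell viability assay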
Description: SANGER: Inhibition of human SF268 cell growth in a cell viability assay.

[34] = test system: BB65-RCC; format: functional, cell-based, Homo sapiens; settings: Homo sapiens, BB65-RCC;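 also: growth inhibition of the cell line, measured with a cell viability assay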
Description: SANGER: Inhibition of human BB65-RCC cell growth in a cell viability assay.

[35] = test system: 647-V; format: functional, cell-based, Homo sapiens; settings: Homo sapiens, 647-V;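 also: growth inhibition of 647-V cells, read out with a cell viability assay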
Description: SANGER: Inhibition of human 647-V cell growth in a cell viability assay.

[36] = test system: RCC10RGB; format: functional, cell-based, Homo sapiens; settings: Homo sapiens, RCC10RGB;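 also: growth inhibition of human RCC10RGB cells, read out by a cell viability assay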
Description: SANGER: Inhibition of human RCC10RGB cell growth in a cell viability assay.

[37] = test system: CCRF-CEM; format: functional, cell-based; settings: Homo sapiens;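 also: inhibition of CCRF-CEM cell growth, measured by a cell viability assay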
Description: SANGER: Inhibition of human CCRF-CEM cell growth in a cell viability assay.

[38] = test system: ES6; format: functional, cell-based, Homo sapiens; settings: Homo sapiens, ES6;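 also: growth inhibition of human ES6 cells, read out with a cell viability assay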
Description: SANGER: Inhibition of human ES6 cell growth in a cell viability assay.

[39] = test system: HCC70; format: functional, cell-based, Homo sapiens; settings: Homo sapiens, HCC70;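 also: cell viability assay measuring how strongly the compound suppresses proliferation of HCC70 cells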
Description: SANGER: Inhibition of human HCC70 cell growth in a cell viability assay.

[40] = test system: BFTC-905; format: functional, cell-based, Homo sapiens; settings: Homo sapiens, BFTC-905
Description: SANGER: Inhibition of human BFTC-905 cell growth in a cell viability assay.

[41] = test system: KP-N-YS; format: functional, cell-based; settings: Homo sapiens;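 also: cell viability assay measuring inhibition of cell line growth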
Description: SANGER: Inhibition of human KP-N-YS cell growth in a cell viability assay.

[42] = test system: P12-Ichikawa; format: functional, cell-based; settings: Homo sapiens
[43] = test system: UACC-257; format: functional, cell-based, Homo sapiens; settings: Homo sapiens, UACC-257
Description: SANGER: Inhibition of human UACC-257 cell growth in a cell viability assay.

[44] = test system: OMC-1; format: functional, cell-based, Homo sapiens; settings: Homo sapiens, OMC-1;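 also: growth inhibition of the OMC-1 cell line, measured by a cell viability assay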
Description: SANGER: Inhibition of human OMC-1 cell growth in a cell viability assay.

[45] = test system: LAMA-84; format: functional, cell-based; settings: Homo sapiens;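 also: growth inhibition of LAMA-84 cells, read out with a cell viability assay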
Description: SANGER: Inhibition of human LAMA-84 cell growth in a cell viability assay.

[46] = test system: Capan-2; format: functional, cell-based, Homo sapiens; settings: Homo sapiens, Capan-2;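 also: Capan-2 cell growth inhibition, read out with a viability assay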
Description: SANGER: Inhibition of human Capan-2 cell growth in a cell viability assay.

[47] = test system: HMV-2 cell line; format: functional, cell-based, Homo sapiens; settings: Homo sapiens, HMV-2;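 also: growth inhibition of HMV-II cells, read out with a cell viability assay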
Description: SANGER: Inhibition of human HMV-II cell growth in a cell viability assay.

[48] = test system: EC-GI-10; format: functional, cell-based, Homo sapiens; settings: Homo sapiens, EC-GI-10
Description: SANGER: Inhibition of human EC-GI-10 cell growth in a cell viability assay.

COc1ccc(-c2ccc3c(N4CCOC[C@@H]4C)nc(N4CCOC[C@@H]4C)nc3n2)cc1CO [AZD-8055]
IC50 [1]: > 2 µM
IC50 [2]: 0.678 µM
IC50 [3]: 0.572 µM
IC50 [4]: 1.09 µM
IC50 [5]: > 2 µM
IC50 [6]: 0.962 µM
IC50 [7]: 1.37 µM
IC50 [8]: > 2 µM
IC50 [9]: > 2 µM
IC50 [10]: 1.5 µM
IC50 [11]: 0.534 µM
IC50 [12]: 0.959 µM
IC50 [13]: 0.438 µM
IC50 [14]: > 2 µM
IC50 [15]: 0.437 µM
IC50 [16]: 1.62 µM
IC50 [17]: > 2 µM
IC50 [18]: 0.539 µM
IC50 [19]: 1.94 µM
IC50 [20]: > 2 µM
IC50 [21]: > 2 µM
IC50 [22]: 1.11 µM
IC50 [23]: 0.578 µM
IC50 [24]: 0.974 µM
IC50 [25]: 1.22 µM
IC50 [26]: > 2 µM
IC50 [27]: 0.769 µM
IC50 [28]: > 2 µM
IC50 [29]: 1.9 µM
IC50 [30]: 0.599 µM
IC50 [31]: 0.473 µM
IC50 [32]: 1.15 µM
IC50 [33]: > 2 µM
IC50 [34]: 0.308 µM
IC50 [35]: 1.54 µM
IC50 [36]: > 2 µM
IC50 [37]: > 2 µM
IC50 [38]: 1.36 µM
IC50 [39]: > 2 µM
IC50 [40]: 0.621 µM
IC50 [41]: 0.431 µM
IC50 [42]: 1.03 µM
IC50 [43]: > 2 µM
IC50 [44]: 0.727 µM
IC50 [45]: 0.18 µM
IC50 [46]: > 2 µM

CN(Cc1cnc2nc(N)nc(N)c2n1)c1ccc(C(=O)N[C@@H](CCC(=O)O)C(=O)O)cc1 [METHOTREXATE]
IC50 [1]: > 0.2 µM
IC50 [2]: > 0.2 µM
IC50 [3]: > 0.2 µM
IC50 [4]: > 0.2 µM
IC50 [5]: > 0.2 µM
IC50 [6]: > 0.2 µM
IC50 [7]: > 0.2 µM
IC50 [8]: > 0.2 µM
IC50 [9]: > 0.2 µM
IC50 [47]: > 0.2 µM
IC50 [10]: > 0.2 µM
IC50 [11]: > 0.2 µM
IC50 [12]: > 0.2 µM
IC50 [13]: > 0.2 µM
IC50 [14]: > 0.2 µM
IC50 [15]: > 0.2 µM
IC50 [16]: > 0.2 µM
IC50 [17]: 0.0994 µM
IC50 [18]: > 0.2 µM
IC50 [19]: 0.0115 µM
IC50 [20]: 0.151 µM
IC50 [21]: > 0.2 µM
IC50 [22]: > 0.2 µM
IC50 [23]: > 0.2 µM
IC50 [24]: > 0.2 µM
IC50 [25]: > 0.2 µM
IC50 [26]: > 0.2 µM
IC50 [27]: > 0.2 µM
IC50 [28]: > 0.2 µM
IC50 [29]: > 0.2 µM
IC50 [30]: > 0.2 µM
IC50 [31]: > 0.2 µM
IC50 [32]: 0.118 µM
IC50 [33]: > 0.2 µM
IC50 [34]: > 0.2 µM
IC50 [35]: > 0.2 µM
IC50 [36]: > 0.2 µM
IC50 [37]: > 0.2 µM
IC50 [38]: > 0.2 µM
IC50 [39]: > 0.2 µM
IC50 [40]: > 0.2 µM
IC50 [41]: > 0.2 µM
IC50 [42]: 0.0413 µM
IC50 [48]: > 0.2 µM
IC50 [43]: > 0.2 µM
IC50 [44]: > 0.2 µM
IC50 [45]: 0.0124 µM
IC50 [46]: > 0.2 µM

COc1ccc(C2=N[C@@H](c3ccc(Cl)cc3)[C@@H](c3ccc(Cl)cc3)N2C(=O)N2CCNC(=O)C2)c(OC(C)C)c1 [NUTLIN-3]
IC50 [1]: > 8 µM
IC50 [2]: > 8 µM
IC50 [3]: > 8 µM
IC50 [4]: > 8 µM
IC50 [5]: > 8 µM
IC50 [6]: 6.88 µM
IC50 [7]: > 8 µM
IC50 [8]: > 8 µM
IC50 [9]: > 8 µM
IC50 [47]: > 8 µM
IC50 [10]: > 8 µM
IC50 [11]: > 8 µM
IC50 [12]: > 8 µM
IC50 [13]: > 8 µM
IC50 [14]: > 8 µM
IC50 [15]: 1.81 µM
IC50 [16]: > 8 µM
IC50 [17]: > 8 µM
IC50 [18]: > 8 µM
IC50 [19]: > 8 µM
IC50 [20]: 6.59 µM
IC50 [21]: > 8 µM
IC50 [22]: > 8 µM
IC50 [23]: 2.57 µM
IC50 [24]: > 8 µM
IC50 [25]: > 8 µM
IC50 [26]: > 8 µM
IC50 [27]: > 8 µM
IC50 [28]: > 8 µM
IC50 [29]: > 8 µM
IC50 [30]: > 8 µM
IC50 [31]: > 8 µM
IC50 [32]: > 8 µM
IC50 [33]: > 8 µM
IC50 [34]: > 8 µM
IC50 [35]: > 8 µM
IC50 [36]: > 8 µM
IC50 [37]: > 8 µM
IC50 [38]: > 8 µM
IC50 [39]: > 8 µM
IC50 [40]: > 8 µM
IC50 [41]: > 8 µM
IC50 [42]: > 8 µM
IC50 [43]: > 8 µM
IC50 [44]: > 8 µM
IC50 [45]: > 8 µM
IC50 [46]: > 8 µM
